In patent publication US20130079345A1, “[…] ACTIVE DISUBSTITUTED TRIAZINE DERIVATIVES” (BAYER INTELLECTUAL PROPERTY GMBH, priority 2010, published 2013):

Columns and labels:
CDK8/Cyclin C = target: T1, CDK8/Cyclin C (Homo sapiens, UniProt P49336); assay: LanthaScreen Eu Kinase Binding Assay, CDK8; conditions: tracer 236, read-out: Affinity (Kd) CDK8
T1 construct: purchased Invitrogen
Procedure: (§1) This protocol describes how the LanthaScreen Eu Kinase Binding Assay was performed to determine dissociation constants (Kd) of compounds of general formula (I) and CDK/Cyclin complexes. The principle behind this assay is based upon the binding and displacement of an Alexa Fluor 647-labeled tracer, which binds to the active site of kinases. Binding of the tracer to the kinase is detected using a Eu-labeled antibody. Simultaneous binding of both the tracer and antibody to the kinase gives rise to a FRET-signal. Binding of an inhibitor to the kinase competes for binding with the tracer, resulting in a loss of FRET.
(§2) The compounds of general formula (I) summarized in Table 1 were diluted from a 10 mM DMSO stock solution 1:10 in a total volume of 15 μL DMSO. This compound predilution was then serial diluted 1:3 over 8 steps in DMSO and briefly spun down. Each compound solution was now diluted 1:33.33 in kinase buffer (HEPES: 20 mM, pH: 8.0; MgCl2: 10 mM; DTT: 1 mM; Brij-35: 0.01%), mixed thoroughly and spun down. For every sample, 5 μL of the diluted compound were mixed with 5 μL tracer working solution (e.g. 60 nM tracer 236 in kinase buffer for CDK2/Cyclin A) and 5 μL CDK/Cyclin/Anti-GST-AB-working solution (e.g. 15 nM CDK2/Cyclin A, 1:250 dilution of Anti-GST-AB in kinase buffer) in a well of a small volume 384 well plate (Corning Incorporated, Corning, N.Y., USA; order no. 3673). […] For positive controls, in each well 5 μL of DMSO working solution (3% DMSO diluted in kinase buffer) was mixed with 5 μL CDK/Cyclin/Anti-GST-AB-working solution: (e.g. 15 nM CDK2/Cyclin A, 1:250 dilution of Anti-GST-AB in kinase buffer) and 5 μL Tracer working solution (e.g. 60 nM Tracer 236 in kinase buffer for CDK2/Cyclin A). Positive and negative controls were calculated from at least 8 different sample wells. The 384 well plates were mixed in a Teleshaker plate mixer (Beckman Coulter, Brea, Calif., USA) at 2000 rpm for 40 sec, and incubated for 1 h at room temperature before reading. The FRET signal was measured at 340 nm excitation, 665 nm and 615 nm emission (for the kinase tracer and LanthaScreen Eu-AB, respectively) with an Envision spectrophotometer (Perkin Elmer, Waltham, Mass., USA) with 50 μs delay and 300 μs integration time. Kd values were determined from the sigmoidal dose response curves with the software Quattro Workflow (Quattro GmbH, Munich, Germany).

CDK9/Cyclin T1 = target: T2, CDK9/Cyclin T1 (Homo sapiens, UniProt P50750); assay: LanthaScreen Eu Kinase Binding Assay, CDK9/Cyclin T1; conditions: tracer 236, read-out: Affinity (Kd) CDK9/Cyclin T1
T2 construct: purchased Invitrogen
Procedure: as §1, §2

CDK7/CyclinH/Mat1 [1] = target: T3, CDK7/CyclinH/Mat1 (Homo sapiens, UniProt P50613); assay: LanthaScreen Eu Kinase Binding Assay, CDK7; conditions: tracer 236, read-out: Affinity (Kd) CDK7
T3 construct: purchased Carna Biosciences
Procedure: as §1, §2

CDK9/Cyclin K = target: T4, CDK9/Cyclin K (Homo sapiens, UniProt P50750); assay: LanthaScreen Eu Kinase Binding Assay, CDK9/Cyclin K; conditions: tracer 236, read-out: Affinity (Kd) CDK9/Cyclin K
T4 construct: purchased Invitrogen
Procedure: as §1, §2

CDK2/CyclinA [2] = target: T5, CDK2/CyclinA (Homo sapiens, UniProt P24941); assay: LanthaScreen Eu Kinase Binding Assay, CDK2; conditions: tracer 236, read-out: Affinity (Kd) CDK2
T5 construct: purchased Proqinase
Procedure: as §1, §2

[3] = system: NF-kappaB reporter gene activation in HEK293 cells; assay: NF-kappaB reporter assay; type: cell-based; conditions: Homo sapiens, 20 ng/ml TNF alpha, 5 h
Procedure: Cells were maintained in RPMI cell culture medium+glutamine (PAN Biotech GmbH, Aidenbach, Germany) supplemented with 10% fetal calf serum (PAA Laboratories GmbH, Pasching, Austria) and grown at 37° C., 5% CO2. HEK293 cells grown to 50% confluence were transfected with the Amaxa® Cell Line Nucleofector® Kit V (Lonza, Basel, Switzerland, catalog #VCA-1003). Transfections were performed according to manufacturer's optimized protocol for transfection of HEK293 cells. In brief, 2×10^5 cells were transfected with 5 μg highly purified plasmid DNA. Cells were transfected with a NF-kappa B reporter plasmid (pNFkBluc), pTALluc for control, or pMAXGFP for transfection control. After transfection, cells were taken up in 500 μL RPMI1640 cell culture medium, incubated for 1 h at 37° C., and 4.5 ml DMEM without phenol red were added per transfection. Transfected cells were seeded in 96 well plates (Greiner Bio-One, Frickenhausen, Germany, catalog #655098) with 100 μL cell suspension per well and incubated for 48 h. To each well, 100 μL DMEM with 2× concentrated compound diluted from 10 mM DMSO stocks, or 100 μL DMEM with 0.4% DMSO for control wells, was added. The compounds of general formula (I) summarized in Table 6 were used in this assay. Cells were stimulated with 20 ng/ml TNF alpha, and plates were incubated for 5 h at 37° C./5% CO2. Cell culture supernatants were removed to leave 100 μl medium per well, followed by addition of 100 μl Bright Glo luciferase assay reagent (Promega, Madison, Wis., USA, catalog #E2620), and shaking for 5 minutes in the dark. Luminescence was measured with a Victor Photospectrometer (Perkin Elmer, Waltham, Mass., USA). […], values were calculated with the software Excel Fit (IDBS, Guildford, UK) from 2-fold dilution series comprising at least 10 concentrations in duplicates.

[4] = system: RNA Polymerase II Ser2 phosphorylation (cellular CDK9 activity) in HCT-116 cells; assay: RNA-Polymerase II Ser2 cellular phosphorylation assay; type: cell-based; conditions: Homo sapiens, normalized with tubulin
Procedure: HCT-116 cells (DSMZ, Braunschweig, Germany) were maintained in Mc Coy's cell culture medium+glutamine (PAN Biotech GmbH, Aidenbach, Germany) supplemented with 10% fetal calf serum (PAA Laboratories GmbH, Pasching, Austria) and grown at 37° C., 5% CO2. For the cellular phosphorylation assay, cells were seeded with 2×10^5 cells/well/1 ml in 24-well plates (Greiner Bio—One, Frickenhausen, Germany; catalog #662160). The compounds of general formula (I) summarized in Table 6 were diluted from a 10 mM DMSO stock solution 1:10 in a total volume of 15 μL DMSO. After overnight incubation at 37° C./5% CO2, 1.5 μL of a compound diluted in DMSO was added to each sample well. Wells with cells and 0.15% DMSO in culture medium were used as positive controls, wells without cells and 0.15% DMSO in culture medium were used as negative controls. The cells were incubated with the compounds for 72 h at 37° C./5% CO2. Before lysis, cells were washed with phosphate buffered saline. Phosphorylation of RNA Polymerase II Ser2 and tubulin levels for normalization were analyzed afterwards with the Multi-Array technology (Meso Scale Discovery, Gaithersburg, Md., USA), a combination of antibody coupled electrochemiluminescence detection and patterned arrays. Manufacturer's instructions were followed and all solutions were purchased from Meso Scale Discovery. In brief, cells were lysed by 30 min incubation in CLB1 lysis buffer (Zeptosens, Witterswil, Switzerland; 60 μL per well), and supernatants were cleared by centrifugation. For analysis of RNA Polymerase II Ser2-phosphorylation, lysates were diluted 1:50 with Meso Scale Lysis Buffer supplemented with phosphatase- and protease-inhibitors, and 25 µL of each sample was pipetted in a well of a MSD Multi-Array 96-Well Plate Sector® Imager High Bind Plate (Meso Scale Discovery; catalog #L15XB-3/L11XB-3), and incubated for 2 h at room temperature. […] Meso Scale Tris Wash Buffer supplemented with 3% w/v Meso Scale Blocker A were added per well, then plates were sealed and incubated 1 h with vigorous shaking. Plates were washed with 1× Tris Wash Buffer (10× Meso Scale Wash Buffer diluted 1:10 in destilled water), 25 μL of antibody solution was added (CTD7 3E10 antibody from Helmholtz Zentrum Munich, Germany, diluted 1:100 in Meso Scale Tris Wash Buffer supplemented with 1% w/v Meso Scale Blocker A), and plates were washed three times in 1× Tris Wash Buffer. 25 μL of MSD® SULFO-TAG™ Goat-Anti-Rat-Antibody (Meso Scale Discovery, catalog #R^32AH-1, diluted 1:125 in Tris Wash Buffer with 1% (w/v) blocker A) were added per well, plates were sealed and incubated with vigorous shaking for 1 h at room temperature. Finally, plates were washed three times with Tris Wash Buffer, 150 μl 2× Read Buffer (Meso Scale Discovery) were added per well and plates were analyzed immediately in a Sector Imager from Meso Scale Discovery. For determination of tubulin protein levels, samples were analyzed with the protocol for RNA Polymerase II Ser2-phosphorylation, with an anti-tubulin antibody (rabbit; BIODESIGN International, catalog #T59840R, diluted 1:100) and a MSD® SULFO-TAG™ […] (Meso Scale Discovery, catalog #R^32AH-1, diluted 1:125). RNA Polymerase II Ser2 phosphorylation was normalized with tubulin protein levels, and EC50 values were calculated with the software XLFit (IDBS, Guildford, UK) from 2-fold dilution series comprising 6 concentrations in duplicates.

CDK2/CyclinA [5] = target: T5, CDK2/CyclinA; assay: Lance Ultra KinaSelect Assay, CDK2; type: biochemical; conditions: ATP 3 μM, read-out: Inhibition (IC50) CDK2
Procedure: (§3) This protocol describes how the Lance Ultra KinaSelect Assay was performed to determine half maximal inhibitory concentration (IC50) of compounds of general formula (I) and CDK/Cyclin complexes. The principle behind this enzymatic assay is based upon the phosphorylation of the ULight-Peptide Substrat. It is detected by using a specific EU-labeled anti-phospho peptide antibody. The binding of the Eu-labeled anti-phospho peptide antibody to the phosphorylated U Light labeled peptide gives rise to a FRET-signal. Binding of an inhibitor to the kinase prevents phosphorylation of the ULight-MBP Substrat, resulting in a loss of FRET.
(§4) The compounds of general formula (I) summarized in Table 5 were diluted from a 10 mM DMSO stock solution 1:10 in a total volume of 15 μL DMSO. This compound predilution was then serial diluted 1:3 over 8 steps in DMSO and briefly spun down. Each compound solution was now diluted 1:20 in Enzymatic Buffer (HEPES: 50 mM, pH: 7.5; MgCl2: 10 mM; EGTA: 1 mM; DTT: 2 mM; Tween-20: 0.01%), mixed thoroughly and spun down. For every sample, 2 μL of the diluted compound were mixed with 6 μL CDK/Cyclin/Substrat solution and […] in a well of a small volume 384 well plate (Corning Incorporated, Corning, N.Y., USA; order no. 3673). […] For positive controls, in each well 2 μL of DMSO solution (1% final DMSO assay concentration) was mixed with 6 μL CDK/Cyclin/Substrat (appropriate final concentration see Table 3) and 2 μL Tracer ATP solution (appropriate final concentration see Table 3). Positive and negative controls were calculated from at least 8 different sample wells. The 384 well plates were mixed in a Teleshaker plate mixer (Beckman Coulter, Brea, Calif., USA) at 2000 rpm for 40 sec, and incubated for 1 h at room temperature. Before reading, 10 μL detection buffer (Lance Detection Buffer 1×; EDTA: […]; Eu-Anti-P-MBP: see Table 3) was added. The FRET signal was measured at 340 nm excitation, 665 nm and 615 nm emission (for the kinase tracer and LanthaScreen Eu-AB, respectively) with an Envision spectrophotometer (Perkin Elmer, Waltham, Mass., USA) with 50 μs delay and 300 μs integration time. IC50 values were determined from the sigmoidal dose response curves with the software Quattro Workflow (Quattro GmbH, Munich, Germany).

CDK9 = target: T6, CDK9 (Homo sapiens, UniProt P50750); assay: Lance Ultra KinaSelect Assay, CDK9; type: biochemical; conditions: read-out: Inhibition (IC50) CDK9
T6 construct: purchased Invitrogen
Procedure: as §3, §4

CDK7/CyclinH/Mat1 [6] = target: T3, CDK7/CyclinH/Mat1; assay: Lance Ultra KinaSelect Assay, CDK7; type: biochemical; conditions: ATP 25 μM, read-out: Inhibition (IC50) CDK7
Procedure: as §3, §4

T1 sequence (P49336 whole entry): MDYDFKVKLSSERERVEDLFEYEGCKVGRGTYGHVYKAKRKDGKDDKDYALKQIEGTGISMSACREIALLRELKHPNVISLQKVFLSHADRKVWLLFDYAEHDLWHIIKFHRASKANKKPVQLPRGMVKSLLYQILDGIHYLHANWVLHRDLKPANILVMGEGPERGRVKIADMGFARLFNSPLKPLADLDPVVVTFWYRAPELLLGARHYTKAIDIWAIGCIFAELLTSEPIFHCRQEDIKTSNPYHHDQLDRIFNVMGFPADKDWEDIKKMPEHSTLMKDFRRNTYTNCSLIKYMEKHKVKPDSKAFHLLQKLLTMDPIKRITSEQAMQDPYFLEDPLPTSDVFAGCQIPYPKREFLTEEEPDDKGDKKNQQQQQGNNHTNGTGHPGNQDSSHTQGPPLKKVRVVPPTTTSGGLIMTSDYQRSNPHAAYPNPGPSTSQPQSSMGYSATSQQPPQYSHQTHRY
T1 sequence (P24863 whole entry partner): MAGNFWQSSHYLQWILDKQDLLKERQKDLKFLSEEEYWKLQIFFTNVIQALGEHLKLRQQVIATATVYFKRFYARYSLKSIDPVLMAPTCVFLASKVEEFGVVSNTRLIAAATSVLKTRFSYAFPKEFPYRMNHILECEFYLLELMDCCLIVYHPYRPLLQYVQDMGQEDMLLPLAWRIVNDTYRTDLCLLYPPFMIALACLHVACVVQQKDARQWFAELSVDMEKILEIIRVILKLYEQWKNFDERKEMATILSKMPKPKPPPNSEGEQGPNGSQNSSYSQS
T3 sequence (P50613 whole entry): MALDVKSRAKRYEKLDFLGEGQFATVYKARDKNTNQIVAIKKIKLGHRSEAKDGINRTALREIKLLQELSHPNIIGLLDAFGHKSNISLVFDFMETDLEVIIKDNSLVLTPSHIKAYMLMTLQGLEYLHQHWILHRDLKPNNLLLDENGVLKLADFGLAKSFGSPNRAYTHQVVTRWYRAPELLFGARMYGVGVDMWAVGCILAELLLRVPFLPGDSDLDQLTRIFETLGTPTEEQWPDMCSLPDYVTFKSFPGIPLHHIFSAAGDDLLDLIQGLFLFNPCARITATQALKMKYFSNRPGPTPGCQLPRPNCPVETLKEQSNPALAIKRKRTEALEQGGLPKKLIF
T3 sequence (P51946 whole entry partner): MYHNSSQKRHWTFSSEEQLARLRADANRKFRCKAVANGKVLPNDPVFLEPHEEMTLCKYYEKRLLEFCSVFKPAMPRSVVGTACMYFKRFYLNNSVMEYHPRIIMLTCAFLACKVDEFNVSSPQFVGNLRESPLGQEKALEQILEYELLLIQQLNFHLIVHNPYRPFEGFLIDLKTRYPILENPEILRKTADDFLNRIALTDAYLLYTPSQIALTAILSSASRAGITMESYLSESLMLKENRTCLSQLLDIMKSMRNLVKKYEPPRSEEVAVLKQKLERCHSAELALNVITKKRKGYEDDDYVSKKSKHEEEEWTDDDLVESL
T3 sequence (P51948 whole entry partner): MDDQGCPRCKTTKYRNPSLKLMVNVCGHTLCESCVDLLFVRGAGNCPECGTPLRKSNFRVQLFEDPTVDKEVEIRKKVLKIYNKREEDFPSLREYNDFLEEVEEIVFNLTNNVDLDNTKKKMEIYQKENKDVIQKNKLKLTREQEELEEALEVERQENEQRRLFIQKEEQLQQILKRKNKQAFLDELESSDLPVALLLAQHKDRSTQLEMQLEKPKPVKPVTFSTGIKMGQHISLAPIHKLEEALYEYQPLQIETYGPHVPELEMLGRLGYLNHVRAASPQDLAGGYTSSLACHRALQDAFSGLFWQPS
T2 sequence (P50750 whole entry): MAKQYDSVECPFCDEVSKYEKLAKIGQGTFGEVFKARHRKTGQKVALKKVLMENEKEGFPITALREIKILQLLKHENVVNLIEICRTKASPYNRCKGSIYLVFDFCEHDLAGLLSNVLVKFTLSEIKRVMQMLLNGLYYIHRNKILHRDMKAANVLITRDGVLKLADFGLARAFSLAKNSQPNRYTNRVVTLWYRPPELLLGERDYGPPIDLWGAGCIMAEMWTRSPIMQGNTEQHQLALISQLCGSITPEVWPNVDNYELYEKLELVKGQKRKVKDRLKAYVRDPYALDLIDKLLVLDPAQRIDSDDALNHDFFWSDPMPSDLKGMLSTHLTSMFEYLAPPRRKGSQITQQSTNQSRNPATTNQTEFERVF
T2 sequence (O60563 whole entry partner): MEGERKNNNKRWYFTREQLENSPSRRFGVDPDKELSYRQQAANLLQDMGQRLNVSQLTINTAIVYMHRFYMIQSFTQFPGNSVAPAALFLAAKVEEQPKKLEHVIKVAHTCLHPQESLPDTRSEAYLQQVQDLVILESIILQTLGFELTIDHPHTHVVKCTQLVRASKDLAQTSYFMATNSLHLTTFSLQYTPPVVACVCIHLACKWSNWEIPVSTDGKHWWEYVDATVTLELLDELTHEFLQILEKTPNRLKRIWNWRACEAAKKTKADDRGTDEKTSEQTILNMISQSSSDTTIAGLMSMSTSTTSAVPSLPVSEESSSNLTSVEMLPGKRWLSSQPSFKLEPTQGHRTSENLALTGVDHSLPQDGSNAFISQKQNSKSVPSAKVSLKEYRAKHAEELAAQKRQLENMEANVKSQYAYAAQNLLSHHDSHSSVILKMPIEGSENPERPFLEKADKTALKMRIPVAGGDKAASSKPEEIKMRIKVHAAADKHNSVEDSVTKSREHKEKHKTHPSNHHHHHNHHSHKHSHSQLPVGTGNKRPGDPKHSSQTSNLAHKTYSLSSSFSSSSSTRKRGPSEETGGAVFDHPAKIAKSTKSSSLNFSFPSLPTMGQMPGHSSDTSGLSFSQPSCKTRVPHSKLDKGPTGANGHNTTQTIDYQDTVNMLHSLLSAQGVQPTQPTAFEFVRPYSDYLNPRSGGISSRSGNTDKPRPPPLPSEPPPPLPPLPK
T4 sequence (P50750 whole entry): as the sequence (P50750 whole entry) above
T4 sequence (O75909 whole entry partner): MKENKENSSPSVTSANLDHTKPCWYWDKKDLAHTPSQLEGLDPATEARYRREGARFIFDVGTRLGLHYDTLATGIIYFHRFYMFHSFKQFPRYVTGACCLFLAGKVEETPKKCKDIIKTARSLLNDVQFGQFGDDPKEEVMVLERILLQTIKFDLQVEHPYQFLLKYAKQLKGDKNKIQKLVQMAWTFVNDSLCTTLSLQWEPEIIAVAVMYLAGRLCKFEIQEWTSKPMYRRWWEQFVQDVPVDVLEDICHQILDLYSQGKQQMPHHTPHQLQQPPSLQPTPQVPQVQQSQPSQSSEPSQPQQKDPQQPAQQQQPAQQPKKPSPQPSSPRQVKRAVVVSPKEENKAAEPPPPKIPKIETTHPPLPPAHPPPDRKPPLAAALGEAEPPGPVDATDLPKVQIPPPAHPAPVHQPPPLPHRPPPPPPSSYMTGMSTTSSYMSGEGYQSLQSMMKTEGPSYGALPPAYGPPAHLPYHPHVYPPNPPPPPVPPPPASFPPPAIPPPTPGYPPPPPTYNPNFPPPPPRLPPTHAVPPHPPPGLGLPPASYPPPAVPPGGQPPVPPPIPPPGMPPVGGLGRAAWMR
T6 sequence (P50750 whole entry): as the sequence (P50750 whole entry) above

| Compound | Kd (CDK8/Cyclin C) | Kd (CDK9/Cyclin T1) | Kd (CDK7/CyclinH/Mat1 [1]) | Kd (CDK9/Cyclin K) | Kd (CDK2/CyclinA [2]) | IC50 [3] | IC50 [4] | IC50 (CDK2/CyclinA [5]) | IC50 (CDK9) | IC50 (CDK7/CyclinH/Mat1 [6]) |
| --- | --- | --- | --- | --- | --- | --- | --- | --- | --- | --- |
| COc1ccc(Cl)cc1-c1ncnc(Nc2cccc(CS(N)(=O)=O)c2)n1 [Compound B7, 3-[(4-(5-Chloro-2-methoxyphenyl)-1,3,5-triazin-2-yl)amino]benzenemethanesulfonamide] | > 10000 nM | 55 nM | > 10000 nM | 101 nM | – | – | – | – | – | – |
| NS(=O)(=O)Cc1cccc(Nc2ncnc(-c3cccc4c3OCO4)n2)c1 [Compound B15, 3-[(4-(1,3-Benzodioxol-4-yl)-1,3,5-triazin-2-yl)amino]benzenemethanesulfonamide] | > 10000 nM | 141 nM | > 10000 nM | 2460 nM | 6460 nM | – | – | – | – | – |
| COc1ccncc1-c1ncnc(Nc2cccc(CS(N)(=O)=O)c2)n1 [Compound B18, 3-[(4-(4-Methoxypyridin-3-yl)-1,3,5-triazin-2-yl)amino]benzenemethanesulfonamide] | 1760 nM | 104 nM | > 10000 nM | 302 nM | – | – | – | – | – | – |
| Nc1ccc(-c2ncnc(Nc3cccc(CS(N)(=O)=O)c3)n2)cn1 [Compound B23, 3-[(4-(6-Aminopyridin-3-yl)-1,3,5-triazin-2-yl)amino]benzenemethanesulfonamide] | – | 99 nM | > 10000 nM | 26.2 nM | – | > 30000 nM | > 30000 nM | – | – | – |
| COc1ccccc1-c1ncnc(Nc2cccc(S(C)(=O)=O)c2)n1 [Compound S1, 4-(2-Methoxyphenyl)-N-(3-(methylsulfonyl)phenyl)-1,3,5-triazin-2-amine] | – | 6.9 nM | > 10000 nM | – | 851 nM | – | – | 1770 nM | 24.7 nM | > 10000 nM |
| COc1ccccc1-c1ncnc(Nc2ccc(CS(N)(=O)=O)cc2)n1 [Compound T1, 4-[(4-(2-Methoxyphenyl)-1,3,5-triazin-2-yl)amino]benzenemethanesulfonamide] | – | 43.7 nM | > 10000 nM | – | 237 nM | – | – | 259 nM | 190 nM | > 10000 nM |
